Data on 12 molecules can be found in ChEMBL document CHEMBL2202959, “Essential structure of opioid κ receptor agonist nalfurafine for binding to the κ receptor 3: synthesis of decahydro(iminoethano)phenanthrene derivatives with an oxygen functionality at the 3-position and their pharmacologies” (Bioorg Med Chem Lett, 2012).

For test [1], the target named is Kappa-type opioid receptor (Cavia porcellus, UniProt P41144). Kind of test: Displacement of [3H]U-69,593 from kappa opioid receptor in guinea pig cerebellum membranes. In kind it is cell membranes, Membrane.
Sequence of Kappa-type opioid receptor (P41144 whole entry): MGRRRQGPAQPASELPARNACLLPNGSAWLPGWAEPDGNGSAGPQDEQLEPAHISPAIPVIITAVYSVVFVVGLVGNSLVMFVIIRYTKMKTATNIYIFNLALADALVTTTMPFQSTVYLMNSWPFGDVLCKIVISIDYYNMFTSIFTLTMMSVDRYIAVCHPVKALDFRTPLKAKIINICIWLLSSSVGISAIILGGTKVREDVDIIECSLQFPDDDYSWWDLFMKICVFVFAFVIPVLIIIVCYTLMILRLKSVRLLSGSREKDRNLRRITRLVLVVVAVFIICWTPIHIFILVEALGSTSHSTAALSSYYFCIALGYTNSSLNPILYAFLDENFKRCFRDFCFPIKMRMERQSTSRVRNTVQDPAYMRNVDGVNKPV
Test [2] in a line: Selectivity ratio of Ki for mu opioid receptor in mouse whole brain membranes without cerebellum to Ki for kappa opioid receptor in guinea pig cerebellum membranes. In kind it is cell membranes.
The target of another test is Mu-type opioid receptor (Mus musculus, UniProt P42866). Kind of test: Displacement of [3H]DAMGO from mu opioid receptor in mouse whole brain membranes without cerebellum. The format is cell membranes, Membrane.
Sequence of Mu-type opioid receptor (P42866 whole entry): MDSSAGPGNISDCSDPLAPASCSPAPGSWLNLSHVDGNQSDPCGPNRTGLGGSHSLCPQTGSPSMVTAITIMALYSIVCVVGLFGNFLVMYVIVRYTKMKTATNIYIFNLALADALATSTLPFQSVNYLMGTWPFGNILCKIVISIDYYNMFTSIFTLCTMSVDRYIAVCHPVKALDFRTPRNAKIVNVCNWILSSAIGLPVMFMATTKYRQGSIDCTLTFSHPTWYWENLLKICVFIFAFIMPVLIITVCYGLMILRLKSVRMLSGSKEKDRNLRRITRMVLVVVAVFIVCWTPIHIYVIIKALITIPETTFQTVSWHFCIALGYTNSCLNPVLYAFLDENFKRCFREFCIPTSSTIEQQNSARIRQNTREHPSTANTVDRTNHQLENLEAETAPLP
Test [3] concerns the target Delta-type opioid receptor (Mus musculus, UniProt P32300). Kind of test: Displacement of [3H]DPDPE from delta opioid receptor in mouse whole brain membranes without cerebellum. In kind it is cell membranes, Membrane.
Test [4] can be described thus: Selectivity ratio of Ki for delta opioid receptor in mouse whole brain membranes without cerebellum to Ki for kappa opioid receptor in guinea pig cerebellum membranes. The format is cell membranes.

Sequence of Delta-type opioid receptor (P32300 whole entry): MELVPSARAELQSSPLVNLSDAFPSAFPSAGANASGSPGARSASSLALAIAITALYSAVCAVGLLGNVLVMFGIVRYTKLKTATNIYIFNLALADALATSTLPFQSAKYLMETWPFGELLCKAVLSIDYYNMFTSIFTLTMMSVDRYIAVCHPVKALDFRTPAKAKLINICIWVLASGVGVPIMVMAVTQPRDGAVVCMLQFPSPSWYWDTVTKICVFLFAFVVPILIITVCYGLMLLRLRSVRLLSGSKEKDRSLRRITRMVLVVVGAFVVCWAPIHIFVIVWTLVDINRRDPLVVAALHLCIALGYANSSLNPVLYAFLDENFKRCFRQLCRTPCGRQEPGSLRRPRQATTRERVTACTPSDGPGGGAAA

Take `CN(C(=O)/C=C/c1ccoc1)[C@@H]1CC[C@@]2(O)[C@H]3CC4=C(C[C@H](O)CC4)[C@@]2(CCN3CC2CC2)C1`: the results for the Ki (in test [1]; on Mu-type opioid receptor; in test [3]) were 0.733 nM, 57.6 nM and 47.5 nM, respectively. Also, the Ratio Ki in test [2] came out at 79; in test [4], 65.
For the molecule `CN(C(=O)/C=C/c1ccoc1)[C@H]1CC[C@@]2(O)[C@H]3Cc4cccc5c4[C@@]2(CCN3CC2CC2)[C@H]1O5`, the Ki in test [1] is 0.34 nM; at Mu-type opioid receptor it was 8.88 nM; in test [3], 49.5 nM. Further, the Ratio Ki was 26 in test [2] and 146 in test [4].
Take `CN(C(=O)/C=C/c1ccoc1)[C@H]1CC[C@@]2(O)[C@H]3CC4=C(C[C@H](O)CC4)[C@@]2(CCN3CC2CC2)C1`: the Ki amounted to 1.1 nM in test [1], 5.26 nM on Mu-type opioid receptor and 8.45 nM in test [3]. In addition, the Ratio Ki in test [2] was 4.8; in test [4], 7.7.
For `CN(C(=O)/C=C/c1ccoc1)[C@@H]1CC[C@@]2(O)[C@H]3CC4=C(CC(=O)CC4)[C@@]2(CCN3CC2CC2)C1` the same measures were 14.5 nM, 51.1 nM, 74.2 nM, 3.5 and 5.1.
The like results for `CN(C(=O)/C=C/c1ccoc1)[C@@H]1CC[C@@]2(O)[C@H]3Cc4ccccc4[C@@]2(CCN3CC2CC2)C1` were, in that order, 0.34 nM, 12.3 nM, 32.4 nM, 36 and 95.
For `CN(C(=O)/C=C/c1ccoc1)[C@H]1CC[C@@]2(O)[C@H]3Cc4ccccc4[C@@]2(CCN3CC2CC2)C1` the same measures were 0.303 nM, 6.52 nM, 5.65 nM, 22 and 19.
Take `CN(C(=O)/C=C/c1ccoc1)[C@H]1CC[C@@]2(O)[C@H]3Cc4ccc(O)cc4[C@@]2(CCN3CC2CC2)C1`: the Ki in test [1] came to 0.163 nM; at Mu-type opioid receptor, 0.324 nM; in test [3] it was 0.623 nM. In addition, the Ratio Ki in test [2] was determined as 2; in test [4], 3.8.
The like results for `CN(C(=O)/C=C/c1ccoc1)[C@H]1CC[C@@]2(O)[C@H]3CC4=C(C[C@@H](O)CC4)[C@@]2(CCN3CC2CC2)C1` were, in that order, 0.451 nM, 5.49 nM, 8.66 nM, 12 and 19.
`CN(C(=O)/C=C/c1ccoc1)[C@H]1CC[C@@]2(O)[C@H]3CC4=C(CC(=O)CC4)[C@@]2(CCN3CC2CC2)C1`: the values for the Ki (in test [1]; at Mu-type opioid receptor; in test [3]) were 2.23 nM, 26 nM and 44.5 nM, respectively. In addition, the Ratio Ki came to 12 in test [2] and 20 in test [4].
For `CN(C(=O)/C=C/c1ccoc1)[C@@H]1CC[C@@]2(O)[C@H]3CC4=C(C[C@@H](O)CC4)[C@@]2(CCN3CC2CC2)C1` the same measures were 0.711 nM, 34.7 nM, 233 nM, 49 and 328.
The like results for `CN(C(=O)/C=C/c1ccoc1)[C@H]1CC[C@H]2[C@H]3CC4=C(CCCC4)[C@@]2(CCN3CC2CC2)C1` were, in that order, 2.28 nM, 8.62 nM, 32.9 nM, 3.8 and 14.
The like results for `CN(C(=O)/C=C/c1ccoc1)[C@H]1CC[C@@]2(O)[C@H]3CC4=C(CCCC4)[C@@]2(CCN3CC2CC2)C1` were, in that order, 2.06 nM, 147 nM, 26.4 nM, 71 and 13.
